Results published in patent publication US5312919A, “Photooxidation products and derivatives thereof of merocyanine-540, their preparation and uses” (priority 1992, dated 1994).
Read-outs that look alike come from different tables or passages of the source.

What was measured:
Assay type in all cases: cell-based
[1] = test system: JEG-3 (choriocarcinoma, human); experiment: Inhibition of cell proliferation, JEG-3 (MTT assay); conditions: for inhibition at 1.56 µg/mL / inhibition at 3.13 µg/mL / inhibition at 6.25 µg/mL / inhibition at 12.5 µg/mL: read-out: % inhibition of cell proliferation
Procedure: (§1) Preactivated MC 540 is abbreviated as pMC 540. […] 52: 831-38 (1990); and T. Mosmann, J. Immulog. Methods 65: 55-63 (1983).
(§2) Each cell type (1×10^6 cells/ml; in triplicate) was treated with indicated concentrations of merocil or merodantoin. After overnight (20 hr.) or 5 day incubation periods, the cell viability was determined by MTT assay and calculated as a percentage of untreated controls. The toxicity in vehicle only (cremophor EL) controls was not detectable at highest dose tested.

certain tumor cells = experiment: Inhibition of proliferation of tumor cells (overall conclusion)
Description: as §1

[2] = test system: human immunodeficiency virus (HIV-1); experiment: Inactivation of cell free human immunodeficiency virus (viability of MT-4 target cells, MTT assay)
Procedure: as §1
Cell free human immunodeficiency virus (HIV-1) was either left untreated or treated with indicated doses of Merocil or Merodantoin for one hour at 37° C. and added to MT-4 target cells. After 4 hour incubation at 37° C., the cells were washed three times and further incubated in drug free fresh growth medium (complete RPMI-1640) at 37° C. for 4 days. On day four, 50% of the culture supernatant was replaced with fresh growth medium to prevent cell death due to possible nutrient depletion. The viability of the cell was determined on day 11 by MTT assay. […] The viability of the MT-4 cells was not affected by Merocil or Merodantoin under the experimental conditions described above.

8226 (multiple myeloma) = experiment: Inhibition of cell proliferation, 8226 (MTT assay); conditions: 24 hr.
Procedure: as §1
Each cell type (1×10^6 cells/ml; in triplicate) was treated with indicated concentrations of merocil or merodantoin. […] The cytotoxicity in vehicle only (cremophor EL) controls was not detectable at highest dose tested.

[3] = test system: human Burkitt lymphoma Daudi cells; experiment: Cytotoxic effects on human Burkitt lymphoma Daudi cells (MTT assay)
Procedure: Human Burkitt Lymphoma Daudi cells (1×10^6 cells/ml) were treated with different concentrations of Merodantoin. After overnight incubation at 37° C., the tumor cells kill was determined by MTT assay.
Human Burkitt Lymphoma Daudi cells (1×10^6 cells/ml) were treated with different concentrations of Merocil. After overnight incubation at 37° C., the tumor cells kill was determined by MTT assay.
Each cell type (1×10^6 cells/ml; in triplicate) was treated with indicated concentrations of Merocil or Merodantoin. After overnight (20 hr.) or 5 day incubation periods, the cell viability was determined by MTT assay and calculated as a percentage of untreated controls.

[4] = test system: DU 145 (prostate, carcinoma, human); experiment: Inhibition of cell proliferation, DU 145 (MTT assay); conditions: for inhibition at 1.56 µg/mL / inhibition at 3.13 µg/mL / inhibition at 6.25 µg/mL / inhibition at 12.5 µg/mL: read-out: % inhibition of cell proliferation
Procedure: as §1, §2

## CCCCN1C(=O)C(=O)N(CCCC)C1=S [Merodantoin, N,N'-Dibutyl-2-thio-4,5-imidazolindion]
[1]; JEG-3, 1.56 μg/ml, 20 hr.
  inhibition at 1.56 µg/mL: 15%
[1]; JEG-3, 3.13 μg/ml, 20 hr.
  inhibition at 3.13 µg/mL: 53%
[1]; JEG-3, 6.25 μg/ml, 20 hr.
  inhibition at 6.25 µg/mL: 88%
[1]; JEG-3, 12.5 μg/ml, 20 hr.
  inhibition at 12.5 µg/mL: 100%
[1]; JEG-3, 25.0 μg/ml, 20 hr.
  inhibition at 25 µg/mL: 100%
[1]; JEG-3, 120 h, 1.56 μg/ml, 5 days
  inhibition at 1.56 µg/mL: 18%
[1]; JEG-3, 120 h, 3.13 μg/ml, 5 days
  inhibition at 3.13 µg/mL: 38%
[1]; JEG-3, 120 h, 6.25 μg/ml, 5 days
  inhibition at 6.25 µg/mL: 91%
[1]; JEG-3, 120 h, 12.5 μg/ml, 5 days
  inhibition at 12.5 µg/mL: 100%
[1]; JEG-3, 120 h, 25.0 μg/ml, 5 days
  inhibition at 25 µg/mL: 100%
Certain tumor cells
  inhibiting the proliferation of certain tumor cells: effective
[2]; 75 μg/ml dose
  inactivation of cell free HIV: virtually complete inactivation of the virus
[2]; Human immunodeficiency virus 1, MT4, 264 h, MT-4 cells + HIV treated with 25 μg/ml, one hour 37° C., day 11, untreated HIV-1 36.75
  viability at 25 µg/mL: 73.5%
[2]; Human immunodeficiency virus 1, MT4, 264 h, MT-4 cells + HIV treated with 50 μg/ml, one hour 37° C., day 11, untreated HIV-1 36.75
  viability at 50 µg/mL: 94.3%
[2]; Human immunodeficiency virus 1, MT4, 264 h, MT-4 cells + HIV treated with 75 μg/ml, one hour 37° C., day 11, untreated HIV-1 36.75
  viability at 75 µg/mL: 102%
[2]; conclusion
  inactivating human immunodeficiency virus (HIV-1): effective
8226 (multiple myeloma); 1.56 μg/ml, read-out: % inhibition of cell proliferation
  inhibition at 1.56 µg/mL: 20%
8226 (multiple myeloma); 3.13 μg/ml, read-out: % inhibition of cell proliferation
  inhibition at 3.13 µg/mL: 16%
8226 (multiple myeloma); 6.25 μg/ml, read-out: % inhibition of cell proliferation
  inhibition at 6.25 µg/mL: 20%
8226 (multiple myeloma); 12.5 μg/ml, read-out: % inhibition of cell proliferation
  inhibition at 12.5 µg/mL: 30%
8226 (multiple myeloma); 25.0 μg/ml
  inhibition at 25 µg/mL: 46%
[3]; 25 μg/ml
  growth inhibition of cultured Daudi lymphoma cells: virtually complete growth inhibition
[3]; Homo sapiens, Daudi, 1.56 μg/ml, overnight, 37° C., read-out: % Cell Kill (means ± S.D.)
  cytotoxicity at 1.56 µg/mL: 2.75 ± 3.2%
[3]; Homo sapiens, Daudi, 3.13 μg/ml, overnight, 37° C., read-out: % Cell Kill (means ± S.D.)
  cytotoxicity at 3.13 µg/mL: 6.25 ± 2.99%
[3]; Homo sapiens, Daudi, 6.25 μg/ml, overnight, 37° C., read-out: % Cell Kill (means ± S.D.)
  cytotoxicity at 6.25 µg/mL: 9.75 ± 1.71%
[3]; Homo sapiens, Daudi, 12.50 μg/ml, overnight, 37° C., read-out: % Cell Kill (means ± S.D.)
  cytotoxicity at 12.5 µg/mL: 42 ± 8.68%
[3]; Homo sapiens, Daudi, 25.00 μg/ml, overnight, 37° C., read-out: % Cell Kill (means ± S.D.)
  cytotoxicity at 25 µg/mL: 100%
[4]; DU-145, 1.56 μg/ml, 20 hr.
  inhibition at 1.56 µg/mL: 0%
[4]; DU-145, 3.13 μg/ml, 20 hr.
  inhibition at 3.13 µg/mL: 1%
[4]; DU-145, 6.25 μg/ml, 20 hr.
  inhibition at 6.25 µg/mL: 8%
[4]; DU-145, 12.5 μg/ml, 20 hr.
  inhibition at 12.5 µg/mL: 9%
[4]; DU-145, 25.0 μg/ml, 20 hr.
  inhibition at 25 µg/mL: 11%
[4]; DU-145, 120 h, 1.56 μg/ml, 5 days
  inhibition at 1.56 µg/mL: 54%
[4]; DU-145, 120 h, 3.13 μg/ml, 5 days
  inhibition at 3.13 µg/mL: 85%
[4]; DU-145, 120 h, 6.25 μg/ml, 5 days
  inhibition at 6.25 µg/mL: 99%
[4]; DU-145, 120 h, 12.5 μg/ml, 5 days
  inhibition at 12.5 µg/mL: 100%
[4]; DU-145, 120 h, 25.0 μg/ml, 5 days
  inhibition at 25 µg/mL: 100%
